Test results published in paper PMC13104648 (Acta Pharmaceutica Sinica. B, 2025).

Key:
mice = settings: cited from earlier work
CHO-hNTSR1 cells = test: Electric cell-substrate impedance sensing; assay type: cell-based, Chinese hamster; settings: 10 μmol/L; for maximum change factor (normalized resistance): 4000 Hz, n = 3 in duplicate
Sprague–Dawley rats = test: Arterial blood pressure in anesthetized rats; settings: 55 nmol/kg i.v.
NTSR1 (β-arrestin 2) = NTSR1 (β-arrestin 2) (Homo sapiens, UniProt P30989); test: BRET^2 βarr recruitment, allosteric modulator assay; assay type: cell-based; settings: pre-treatment up to 100 μmol/L
Sequence of NTSR1 (β-arrestin 2) (P30989 whole entry): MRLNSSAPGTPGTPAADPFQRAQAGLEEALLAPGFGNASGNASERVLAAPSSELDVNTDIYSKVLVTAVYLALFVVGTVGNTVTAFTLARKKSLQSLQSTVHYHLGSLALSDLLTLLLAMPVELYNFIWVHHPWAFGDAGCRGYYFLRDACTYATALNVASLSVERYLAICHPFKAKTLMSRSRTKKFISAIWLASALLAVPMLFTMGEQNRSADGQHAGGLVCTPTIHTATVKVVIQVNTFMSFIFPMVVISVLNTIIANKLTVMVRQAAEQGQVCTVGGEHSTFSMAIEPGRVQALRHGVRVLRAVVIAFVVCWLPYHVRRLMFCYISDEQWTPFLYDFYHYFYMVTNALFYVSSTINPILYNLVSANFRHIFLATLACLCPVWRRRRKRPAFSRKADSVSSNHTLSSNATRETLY

NTSR1 (β-arrestin 1) = NTSR1 (β-arrestin 1) (Homo sapiens, UniProt P30989); test: as above; assay type: cell-based; settings: pre-treatment up to 100 μmol/L
Sequence of NTSR1 (β-arrestin 1) (P30989 whole entry): as above

hNTSR1 (Gα13) = hNTSR1 (Gα13) (Homo sapiens, UniProt P30989); test: BRET^2 G protein dissociation, allosteric modulator assay; assay type: cell-based; settings: pre-treatment up to 100 μmol/L
Sequence of hNTSR1 (Gα13) (P30989 whole entry): as above

rats = settings: chronic neuropathic and inflammatory pain paradigms; cited from earlier work
318 distinct 7TMRs = test: PRESTO-Tango GPCRome panel; assay type: cell-based, human; settings: 10 μmol/L
[1] = anesthetized male rats, mean ± SEM
[2] = anesthetized male rats, mean ± SEM, n = 5

COc1ccccc1C1CCN(c2nc(C3(F)CC3)nc3ccc(N(C)CCO)cc23)CC1 [SBI-553]
hypotension (mice): does not induce hypotension in mice

CCCCCCCCCCCCCCCC(=O)N[C@@H](C)C(=O)N[C@@H](CCCNC(=N)N)C(=O)N[C@@H](CCCCN)C(=O)N[C@@H](CCCCN)C(=O)N[C@@H](CO)C(=O)N[C@@H](CC(C)C)C(=O)N[C@@H](CCC(N)=O)C(=O)N[C@@H](CO)C(=O)N[C@@H](CC(C)C)C(=O)N[C@@H](CCC(N)=O)C(=O)N[C@@H](CO)C(=O)N[C@H](C(=O)N[C@@H](C)C(=O)N[C@@H](Cc1c[nH]cn1)C(N)=O)[C@@H](C)O [[Ala^13]PP-001]
time of maximum change factor post-stimulation (CHO-hNTSR1 cells): 1962 s | maximum change factor (normalized resistance) (CHO-hNTSR1 cells; mean ± SEM): 1.06 ± 0.02 | change factor at 3000 s (50 min) post-stimulation (CHO-hNTSR1 cells; mean ± SEM, n = 3): 1.05 ± 0.03 | delay in hypotensive response (Sprague–Dawley rats): 40 s | time of minimum ΔMABP post-injection (Sprague–Dawley rats): 93 s | ΔMABP lower than that of PP-001 at 300 s (Sprague–Dawley rats): 19 ± 5 mm Hg | minimum ΔMABP of first decline (Sprague–Dawley rats; [1]): −36 ± 4 mm Hg | ΔMABP 300 s post-injection (Sprague–Dawley rats; [1]): −44 ± 2 mm Hg | ΔMABP 140 s post-administration (Sprague–Dawley rats; n = 5): −31 ± 4 mm Hg

CCCCCCCCCCCCCCCC(=O)N[C@@H](C)C(=O)N[C@@H](C)C(=O)N[C@@H](CCCCN)C(=O)N[C@@H](CCCCN)C(=O)N[C@@H](CO)C(=O)N[C@@H](CC(C)C)C(=O)N[C@@H](CCC(N)=O)C(=O)N[C@@H](CO)C(=O)N[C@@H](CC(C)C)C(=O)N[C@@H](CCC(N)=O)C(=O)N[C@@H](CO)C(=O)N[C@H](C(=O)N[C@H](C(=O)N[C@@H](Cc1c[nH]cn1)C(N)=O)C(C)C)[C@@H](C)O [[Ala^2]PP-001]
resistance response profile (CHO-hNTSR1 cells): completely inactive | change to MABP (Sprague–Dawley rats; n = 5): no change to MABP was observed

CCCCCCCCCCCCCCCC(=O)O [Palmitate, palmitate]
effect on potency or efficacy of NT, βarr2 (NTSR1 (β-arrestin 2)): not affected | effect on potency or efficacy of NT, βarr1 (NTSR1 (β-arrestin 1)): not affected | effect on potency or efficacy of NT, Gα13 (hNTSR1 (Gα13)): not affected

CC[C@H](C)[C@H](NC(=O)[C@H](Cc1ccc(O)cc1)NC(=O)[C@@H]1CCCN1C(=O)[C@H](CCCNC(=N)N)NC(=O)[C@@H](N)CCCNC(=N)N)C(=O)N[C@@H](CC(C)C)C(=O)O [NT(8-13), Neurotensin (8-13), reference compound]
ΔMABP 20 s post-injection (Sprague–Dawley rats; [2]): −29 ± 3 mm Hg | ΔMABP 75 s post-injection (Sprague–Dawley rats; [2]): −7 ± 3 mm Hg | ΔMABP 200 s post-injection (Sprague–Dawley rats; [2]): −28 ± 6 mm Hg

CCCCCCCCCCCCCCCC(=O)N[C@@H](C)C(=O)N[C@@H](CCCNC(=N)N)C(=O)N[C@@H](CCCCN)C(=O)N[C@@H](CCCCN)C(=O)N[C@@H](CO)C(=O)N[C@@H](CC(C)C)C(=O)N[C@@H](CCC(N)=O)C(=O)N[C@@H](CO)C(=O)N[C@@H](CC(C)C)C(=O)N[C@@H](CCC(N)=O)C(=O)N[C@@H](CO)C(=O)N[C@H](C(=O)N[C@H](C(=O)N[C@@H](Cc1c[nH]cn1)C(N)=O)C(C)C)[C@@H](C)O [PP-001]
reversing nociceptive behaviors (rats): effective in reversing nociceptive behaviors in rats | baseline-to-baseline timeframe (CHO-hNTSR1 cells): 45 min | time of maximum change factor post-stimulation (CHO-hNTSR1 cells): 1110 s | maximum change factor (normalized resistance) (CHO-hNTSR1 cells; mean ± SEM): 1.06 ± 0.01 | time at which the trace intercepts / returns to baseline (CHO-hNTSR1 cells; post-stimulation): 2700 s | delay in hypotensive response (Sprague–Dawley rats): 40 s | time of minimum ΔMABP post-injection (Sprague–Dawley rats): 105 s | minimum ΔMABP of first decline (Sprague–Dawley rats; [1]): −37 ± 4 mm Hg | ΔMABP 300 s post-injection (Sprague–Dawley rats; [1]): −25 ± 3 mm Hg | βarr2 recruitment across a panel of 318 distinct 7TMRs (318 distinct 7TMRs): did not induce βarr2 recruitment
